Where two headings read alike, the source gives them in different places.
What was measured:
PANC08.13 cells = assay: Cellular phospho-ERK assay, PANC08.13 cells (homozygous KRAS-G12D); assay type: cell-based; conditions: Homo sapiens, read-out: PANC-08.13 pERK IC50
Procedure: Procedure for Cellular Phospho-ERK Assay in KRAS Wild Type and Mutant (G12D, G12V) Cell Lines
MKN-1 cells (JCRB JCRB0252) containing amplified wild-type KRAS, were cultured in growth medium that contains RPMI 1640-GlutaMAX™-I (ThermoFisher Scientific 61870) containing 10% heat inactivated fetal bovine serum (ThermoFisher Scientific 10091148), 1 mM sodium pyruvate and 10 mM HEPES. PANC08.13 cells (ATCC® CRL-2551™), containing homozygous KRAS-G12D activating mutation, were cultured in growth medium made of RPMI1640-GlutaMAX™-I (ThermoFisher Scientific 61870) containing 15% heat inactivated fetal bovine serum (ThermoFisher Scientific 10091148)). AsPC-1 cells (ATCC® CRL-1682™), containing homozygous KRAS-G12D activating mutation, were cultured in T150 flask in growth medium (RPMI medium 1640-GlutaMAX™-I (ThermoFisher Scientific 61870) containing 10% fetal bovine serum (ThermoFisher Scientific 10091148)). SW620 cells (ATCC® […]), containing homozygous KRAS-G12V activating mutation, were cultured in growth medium that contains RPMI 1640-GlutaMAX™-I (ThermoFisher Scientific 61870) containing 10% heat inactivated fetal bovine serum (ThermoFisher Scientific 10091148).
Cells for the assay were harvested in growth medium after TrypLE (ThermoFisher scientific 12604021) digestion and were seeded in a 384-well collagen coated cell culture plate (Corning 356702) at a density of 10,000-15,000 cells/20 μL/well, and incubated at 37° C., 5% CO2 overnight. The compound (with 10 mM stock concentration) dose-response titrations were prepared [30 μM final ERK detection assay concentration and 1:3 dilutions, 10-point dose response] and appropriate amounts (270 nL) of test compounds were dispensed in a 384-well intermediate plate using an Echo 550 liquid handler. 30 μL/well of RPMI medium 1640-GlutaMAX™—I was added to the intermediate plate and the contents of the intermediate plate (10 μL/well) were then transferred to the 384-well collagen coated cell culture plate, which was incubated at 37° C., 5% CO2 for 2 hours. After removal of medium from the collagen coated cell culture plate, cells were lysed in lysis buffer from Alpha SureFire® Ultra™ Multiplex p-ERK and total ERK assay kit (PerkinElmer MPSU-PTERK) containing Halt™ Protease and Phosphatase inhibitor cocktail (ThermoFisher Scientific 78446) at room temperature with constant shaking at 300 rpm for 30 minutes. The cell lysates were then transferred to an OptiPlate-384 plate (PerkinElmer 6005620), and the phosphorylation of ERK (p-ERK) and total ERK levels were detected by Alpha SureFire® Ultra™ Multiplex p-EEK kit and total ERK assay kit (PerkinElmer MPSU-PTERK) following the manufacturer's protocol. Assay plates were read on a En Vision Multimode Plate Reader (PerkinElmer), and the ratio of p-ERK vs. total ERK in each well was used as the final readout. Dose response curves were analyzed using a 4-parameter logistic model to calculate IC50 values using Spotfire software.

[1] = target: KRAS-G12C (C51S/C80L/C118S) (Homo sapiens, UniProt P01116, C118S/C51S/C80L/G12C); assay: SOS-catalyzed nucleotide exchange assay (Procedure A, TR-FRET), KRAS-G12C; assay type: biochemical; conditions: nucleotide exchange, Procedure A; read-out: KRAS G12C GNE IC50
KRAS-G12C (C51S/C80L/C118S), sequence (P01116 with tags, fused parts or gaps isoform P01116-2 G12C/C51S/C80L/C118S): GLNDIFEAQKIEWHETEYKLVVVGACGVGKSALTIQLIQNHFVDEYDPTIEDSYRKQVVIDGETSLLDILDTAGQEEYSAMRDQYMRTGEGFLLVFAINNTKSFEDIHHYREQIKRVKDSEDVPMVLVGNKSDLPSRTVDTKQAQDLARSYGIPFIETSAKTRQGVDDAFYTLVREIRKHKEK
Summary of the method: (§1)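 Biotinylated RAS (KRAS-G12C carries C51S/C80L/C118S; others WT background) preloaded with Bodipy-GDP plus Tb-streptavidin, preincubated with compound 60 min at RT, then human SOS and 3 mM GTP added. Final RAS/SOS: G12C 3 nM/40 nM, 60 min; WT 1 nM/40 nM, 60 min; G12V 1.25 nM/160 nM, 90 min; NRAS 1.25 nM/40 nM, 60 min. TR-FRET 520/495 ratio normalized to DMSO and saturating inhibitor; 10-point curves fit four-parameter logistic.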

KRAS-G12V = KRAS-G12V (Homo sapiens, UniProt P01116, G12V); assay: SOS-catalyzed nucleotide exchange assay (Procedure A, TR-FRET), KRAS-G12V; assay type: biochemical; conditions: nucleotide exchange, read-out: KRAS G12V GNE IC50
KRAS-G12V, sequence (P01116 with tags, fused parts or gaps isoform P01116-2 G12V): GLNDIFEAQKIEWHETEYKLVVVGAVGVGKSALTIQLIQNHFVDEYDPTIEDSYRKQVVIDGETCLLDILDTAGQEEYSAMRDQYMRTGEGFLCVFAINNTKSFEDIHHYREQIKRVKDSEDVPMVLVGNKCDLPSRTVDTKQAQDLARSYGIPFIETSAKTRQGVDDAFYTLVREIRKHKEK
Summary of the method: as §1

KRAS-WT = KRAS-WT (Homo sapiens, UniProt P01116); assay: SOS-catalyzed nucleotide exchange assay (Procedure A, TR-FRET), KRAS-WT; assay type: biochemical; conditions: nucleotide exchange, read-out: KRAS WT GNE IC50
KRAS-WT, sequence (P01116 with tags, fused parts or gaps isoform P01116-2): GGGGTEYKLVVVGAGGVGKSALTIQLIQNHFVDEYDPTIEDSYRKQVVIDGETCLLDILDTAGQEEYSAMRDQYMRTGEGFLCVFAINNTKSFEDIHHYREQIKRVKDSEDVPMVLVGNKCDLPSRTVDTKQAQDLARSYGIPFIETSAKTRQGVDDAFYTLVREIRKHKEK
Summary of the method: as §1

KRAS-G13D = KRAS-G13D (Homo sapiens, UniProt P01116, G13D); assay: SOS-catalyzed nucleotide exchange assay (Procedure A, TR-FRET), KRAS-G13D; assay type: biochemical; conditions: nucleotide exchange, Procedure A; read-out: KRAS G13D GNE IC50
KRAS-G13D, sequence (P01116 with tags, fused parts or gaps isoform P01116-2 G13D): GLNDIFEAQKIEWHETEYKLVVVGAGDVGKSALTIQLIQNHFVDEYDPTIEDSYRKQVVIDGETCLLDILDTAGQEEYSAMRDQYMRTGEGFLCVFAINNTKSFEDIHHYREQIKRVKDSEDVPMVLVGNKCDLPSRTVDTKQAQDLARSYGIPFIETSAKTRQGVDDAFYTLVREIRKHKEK

KRAS-G12D = KRAS-G12D (Homo sapiens, UniProt P01116, G12D); assay: SOS-catalyzed nucleotide exchange assay (Procedure A, TR-FRET), KRAS-G12D; assay type: biochemical; conditions: nucleotide exchange, read-out: KRAS G12D GNE IC50
KRAS-G12D, sequence (P01116 with tags, fused parts or gaps isoform P01116-2 G12D): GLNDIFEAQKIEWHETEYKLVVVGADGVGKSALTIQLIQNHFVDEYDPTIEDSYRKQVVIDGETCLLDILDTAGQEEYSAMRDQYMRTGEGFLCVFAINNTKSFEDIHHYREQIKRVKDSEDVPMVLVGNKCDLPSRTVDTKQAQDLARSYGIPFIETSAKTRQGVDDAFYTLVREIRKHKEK
Summary of the method: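 Signal ratio (520/495 nm, excitation 340 nm) reports Bodipy-GDP retention on biotinylated RAS after SOS-catalyzed exchange with 3 mM GTP. SOS was 40 nM, except 160 nM for G12V. Room-temperature exchange lasted 60 min (90 min for G12V), following a 60 min compound preincubation.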

[2] = PANC-08-13, 2 hours compound incubation

## Cc1cc2[nH]ncc2c(-c2nccc3c2sc2nc(OC[C@@]45CCCN4C[C@H](F)C5)nc(N4CCOC[C@@](C)(O)C4)c23)c1C#N [Ex-34, 4-(2-(((2R,7aS)-2-fluorotetrahydro-1H-pyrrolizin-7a(5H)-yl)methoxy)-4-((S)-6-hydroxy-6-methyl-1,4-oxazepan-4-yl)pyrido[4′,3′:4,5]thieno[2,3-d]pyrimidin-8-yl)-6-methyl-1H-indazole-5-carbonitrile]
PANC08.13 cells; PANC-08-13, KRAS-G12D, 2 hours
  IC50: 0.9 µM
[1]
  IC50: 0.175 µM
KRAS-G12V
  IC50: 0.44 µM
KRAS-WT
  IC50: 0.494 µM
KRAS-G13D
  IC50: 1.09 µM
KRAS-G12D
  IC50: 0.261 µM

## CCc1c(C)cc2[nH]ncc2c1-c1nccc2c1sc1nc(OC[C@@]34CCCN3C[C@H](F)C4)nc(N3CCOC[C@@](C)(O)C3)c12 [Ex-36, (6S)-4-(8-(5-ethyl-6-methyl-1H-indazol-4-yl)-2-(((2R,7aS)-2-fluorotetrahydro-1H-pyrrolizin-7a(5H)-yl)methoxy)pyrido[4′,3′:4,5]thieno[2,3-d]pyrimidin-4-yl)-6-methyl-1,4-oxazepan-6-ol]
PANC08.13 cells; PANC-08-13, KRAS-G12D, 2 hours
  IC50: 0.268 µM
[1]
  IC50: 0.125 µM
KRAS-G12V
  IC50: 0.533 µM
KRAS-WT
  IC50: 0.33 µM
KRAS-G13D
  IC50: 0.15 µM
KRAS-G12D
  IC50: 0.164 µM

## Cc1cc(-c2nccc3c2sc2nc(OC[C@@]45CCCN4C[C@H](F)C5)nc(N4CCOC[C@@](C)(O)C4)c23)c2cn[nH]c2c1 [Ex-37, (S)-4-(2-(((2R,7aS)-2-fluorotetrahydro-1H-pyrrolizin-7a(5H)-yl)methoxy)-8-(6-methyl-1H-indazol-4-yl)pyrido[4′,3′:4,5]thieno[2,3-d]pyrimidin-4-yl)-6-methyl-1,4-oxazepan-6-ol]
PANC08.13 cells; PANC-08-13, KRAS-G12D, 2 hours
  IC50: 1.8 µM
[1]
  IC50: 1.48 µM
KRAS-G12V
  IC50: 1.49 µM
KRAS-WT
  IC50: 3.07 µM
KRAS-G13D
  IC50: 2.45 µM
KRAS-G12D
  IC50: 1.45 µM

## C[C@@]1(O)COCCN(c2nc(OC[C@@]34CCCN3C[C@H](F)C4)nc3sc4c(-c5c(C(F)F)c(Cl)cc6[nH]ncc56)nccc4c23)C1 [Ex-133, (6S)-4-(8-(6-chloro-5-(difluoromethyl)-1H-indazol-4-yl)-2-(((2R,7aS)-2-fluoro-tetrahydro-1H-pyr-rolizin-7a(5H)-yl)-methoxy)pyrido [4′,3′:4,5]thieno [2,3-d]pyrimidin-4-yl)-6-methyl-1,4-oxazepan-6-ol]
PANC08.13 cells; [2]
  IC50: 0.279 µM
[1]
  IC50: 0.0471 µM
KRAS-G12V
  IC50: 0.13 µM
KRAS-WT
  IC50: 0.25 µM
KRAS-G13D
  IC50: 0.11 µM
KRAS-G12D
  IC50: 0.12 µM

## C[C@@]1(O)COCCN(c2nc(OC[C@@]34CCCN3C[C@H](F)C4)nc3sc4c(-c5c(C(F)F)ccc6[nH]ncc56)nccc4c23)C1 [Ex-134]
PANC08.13 cells; [2]
  IC50: 2.68 µM
[1]
  IC50: 0.648 µM
KRAS-G12V
  IC50: 0.876 µM
KRAS-WT
  IC50: 7.21 µM
KRAS-G13D
  IC50: 2.31 µM
KRAS-G12D
  IC50: 1.16 µM

## Cc1cc2[nH]nc(C#N)c2c(-c2nccc3c2sc2nc(OC[C@@]45CCCN4C[C@H](F)C5)nc(N4CCOC[C@@](C)(O)C4)c23)c1C(F)(F)F [Ex-150, 4-(2-(((2R,7aS)-2-fluorotetrahydro-1H-pyrrolizin-7a(5H)-yl)methoxy)-4-((S)-6-hydroxy-6-methyl-1,4-oxazepan-4-yl)pyrido[4′,3′:4,5]thieno[2,3-d]pyrimidin-8-yl)-6-methyl-5-(trifluoromethyl)-1H-indazole-3-carbonitrile]
PANC08.13 cells; [2]
  IC50: 0.974 µM
[1]
  IC50: 0.743 µM
KRAS-G12V
  IC50: 2.12 µM
KRAS-WT
  IC50: 1.87 µM
KRAS-G13D
  IC50: 1.43 µM
KRAS-G12D
  IC50: 1.21 µM

## C#Cc1c(F)ccc2nc(N)cc(-c3nccc4c3sc3nc(OC[C@@]56CCCN5C[C@H](F)C6)nc(N5CCOC[C@@](C)(O)C5)c34)c12 [Ex-178, (S)-4-(8-(2-amino-5-ethynyl-6-fluoroquinolin-4-yl)-2-(((2R,7aS)-2-fluorotetrahydro-1H-pyrrolizin-7a(5H)-yl)methoxy)pyrido[4′,3′: 4.5]thieno[2,3-d]pyrimidin-4-yl)-6-methyl-1,4-oxazepan-6-ol]
PANC08.13 cells; [2]
  IC50: 1.7 µM
[1]
  IC50: 0.241 µM
KRAS-G12V
  IC50: 0.657 µM
KRAS-WT
  IC50: 1.28 µM
KRAS-G13D
  IC50: 1.06 µM
KRAS-G12D
  IC50: 0.906 µM

Source: US20260176289A1, “SMALL MOLECULE INHIBITORS OF KRAS PROTEINS” (Merck Sharp & Dohme LLC, priority 2022, published 2026)
